# Experimental data reported in ChEMBL document CHEMBL1143776, “Thioimidoyl furanosides as first inhibitors of the alpha-L-arabinofuranosidase AbfD3” (Bioorg Med Chem Lett, 2007).
# pIC50: −log10 of the molar value.
# Assay: Inhibition of AbfD3
row,pIC50,SMILES
1,> 4.00,OC[C@@H]1O[C@@H](Sc2nccs2)[C@H](O)[C@H]1O
2,> 4.00,OC[C@@H]1O[C@@H](Sc2ccccn2)[C@H](O)[C@H]1O
3,> 4.00,OC[C@@H]1O[C@@H](Sc2nc3ccccc3s2)[C@H](O)[C@H]1O
4,> 4.00,OC[C@@H]1O[C@@H](Sc2ncccn2)[C@H](O)[C@H]1O
5,> 4.00,OC[C@@H]1O[C@@H](Sc2nc3ccccc3[nH]2)[C@H](O)[C@H]1O
